Results on 79 compounds are retold here after US9682966B2, “Kappa opioid ligands” (The Scripps Research Institute, priority 2012, dated 2017).

Molecules are shown by their SMILES. A value given as a limit tells only on which side of the number the result lay.

This experiment addresses kappa opioid receptor (OPRK1) (Homo sapiens (Human), UniProt P41145). The experiment is described as follows: OPRK1 antagonist assay (b-arrestin-2-TEV / b-lactamase reporter, EC80 U-50488 challenge). Format: cell-based. Conditions: for IC50: OPRK1 antagonist assay vs EC80 U-50488.

kappa opioid receptor (OPRK1), sequence (P41145 whole entry): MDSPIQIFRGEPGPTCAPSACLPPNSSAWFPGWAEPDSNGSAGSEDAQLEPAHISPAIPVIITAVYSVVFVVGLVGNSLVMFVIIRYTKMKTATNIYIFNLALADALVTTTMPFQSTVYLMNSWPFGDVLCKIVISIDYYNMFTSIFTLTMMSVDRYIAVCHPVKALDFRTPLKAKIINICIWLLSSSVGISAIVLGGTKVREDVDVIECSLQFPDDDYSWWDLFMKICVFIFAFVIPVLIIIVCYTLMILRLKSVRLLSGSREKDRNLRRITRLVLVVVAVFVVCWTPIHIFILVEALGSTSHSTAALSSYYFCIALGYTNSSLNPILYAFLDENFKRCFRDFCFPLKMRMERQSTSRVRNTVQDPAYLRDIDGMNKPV

In general, IC50 refers to the point on the concentration scale where inhibition reaches its midpoint. High values mean weaker potency, low ones greater potency. `CCc1noc(-c2cc(C)cnc2N2CCC(NC3CCCCC3)C(OC)C2)n1` (stereo not shown) [compound 391] came in with a half-inhibitory concentration (IC50) of 105 nM.

Compound `COC(=O)c1cc(Br)cnc1N1CCC(NC2CCC(O)CC2)CC1` (stereo not shown) [C6] yielded an IC50 of over 10000 nM.

The compound `Cc1cc(C)c2nc(N3CCC(NCC(C)C)CC3)c(-c3nc(C)no3)cc2c1` [compound 364] yielded an IC50 of 18 nM.

`CCc1noc(-c2cc3cc(C)ccc3nc2N2CC[C@H](NC3CCCCC3)[C@H](OC)C2)n1` [compound 330] came in with a half-inhibitory concentration (IC50) of 4.9 nM.

In turn, `COC1CN(c2nc3ccccc3cc2-c2ncc(C)o2)CCC1NC1CCCCC1` (stereo not shown) [C79] came in with an IC50 of over 10000 nM.

`COC(=O)c1cc(NS(C)(=O)=O)cnc1N1CCC(NC2CCCCC2)CC1` [C30] returned an IC50 of over 10000 nM.

`COC(=O)c1cnc(N2CCC(NC3CCCCC3)CC2)c(Br)c1` [C43] returned an IC50 of 15000 nM.

For `Cc1ccc2nc(N3CCC(NC4CCCCC4)C(CO)C3)c(-c3noc(C)n3)cc2c1` (stereo not shown) [compound 328], half-maximal inhibition (IC50) required 0.72 nM.

For `COC1CN(c2nc3c(C)cc(C)cc3cc2-c2nc(C)no2)CCC1NCC(C)C` (stereo not shown) [compound 365], inhibition was half-maximal at 8 nM (IC50).

For the compound `CO[C@@H]1CN(c2nc3ccccc3nc2-c2nc(C)no2)CC[C@@H]1NC1CCCCC1` [compound 334], the IC50 was found to be 161 nM.

In turn, `CCC(CC)C(=O)NC1CCN(c2nc3ccc(C)cc3cc2-c2nc(C)no2)CC1` [C78] displayed an IC50 of over 10000 nM.

Regarding `Cc1ccc(-c2nc(C)no2)c(N2CCC(NC3CCCCC3)CC2)n1` [compound 387], the 50% inhibitory concentration (IC50) was determined as 89 nM.

Turning to `Cc1ccc2nc(N3CCC(NC4CCCOC4)CC3)c(-c3noc(C)n3)cc2c1` (stereo not shown) [compound 419], the IC50 was determined as 2 nM.

`Cc1cnc(N2CCC(NCC(C)C)CC2)c(-c2ccc(C)nn2)c1` [C93] registered an IC50 of 10200 nM.

`Cc1ccc2nc(N3CCC(C)(NC4CCCCC4)CC3)c(-c3nc(C)no3)cc2c1` [C75] showed a half-maximal inhibitory concentration (IC50) of over 10000 nM.

Regarding `CCc1ccc(-c2cc3cc(C)ccc3nc2N2CCC(NC3CCCC[C@@H]3O)CC2)nn1` (stereo partly shown) [compound 454], the half-maximal inhibitory concentration (IC50) was determined as 783 nM.

`COC(=O)c1cc(NC(=O)CCN(C)C)cnc1N1CCC(NC2CCCCC2)CC1` [C33]: the IC50 is over 10000 nM.

Turning to `CO[C@H]1CN(c2nc3ccc(C)cc3cc2-c2nc(C3CC3)no2)CC[C@H]1NC1CCCCC1` [compound 337], the half-inhibitory concentration (IC50) is 0.73 nM.

Turning to `CO[C@H]1CN(c2nnc(C)cc2-c2nc(C3CC3)no2)CC[C@H]1NC1CCCCC1` [compound 456], inhibition was half-maximal at 6 nM (IC50).

Compound `CCOC(=O)CCNC1CCN(c2nc3ccc(C)cc3cc2-c2nc(C)no2)CC1` [compound 407] gave an IC50 of 341 nM.

For `CO[C@H]1CN(c2nc(C)ccc2-c2ccc(C)nn2)CC[C@H]1NC1CCCCC1` [compound 426], half-maximal inhibition (IC50) required 1970 nM.

In turn, `CO[C@H]1CN(c2nc3c(C)cc(C)cc3cc2-c2nc(C)no2)CC[C@H]1NC1CCCCC1` [compound 362] had a concentration for half-maximal inhibition (IC50) of 3 nM.

The compound `COC(=O)c1cc(C#N)c(N2CCC(NC3CCCCC3)CC2)nc1C` [C55] had an IC50 of over 20000 nM.

`CC(=O)c1cc(-c2ccccc2)cnc1N1CCC(NC2CCCCC2)C(CO)C1` (stereo not shown) [C64] displayed an IC50 of over 10000 nM.

In turn, `CO[C@H]1CN(c2ncc(C)cc2-c2nc(C3CC3)no2)CC[C@H]1NC1CCCCC1` [compound 398] returned a half-inhibitory concentration (IC50) of 18 nM.

`COC(=O)c1cnc(N2CCC(NC3CCCCC3)CC2)c(NS(C)(=O)=O)c1` [C40]: the IC50 is over 10000 nM.

In the case of `CCO/N=C/c1cc2cc(C)ccc2nc1N1CCC(NC2CCCCC2)CC1` [compound 460], half-maximal inhibition (IC50) was put at 141 nM.

Compound `CO[C@@H]1CN(c2ncc(C)cc2-c2nc(C)no2)CC[C@@H]1NC1CCCC1` [compound 345] had an IC50 of 104 nM.

As to `COC(=O)c1cnc(N2CCC(N(C(=O)OC(C)(C)C)C3CCCCC3)CC2)c(Br)c1` [C44], the 50% inhibitory concentration (IC50) is over 10000 nM.

For the compound `COC(=O)c1cnc(N2CCC(NC3CCCCC3)C(O)C2)c(Br)c1` (stereo not shown) [compound 103], the half-maximal inhibitory concentration (IC50) was 137 nM.

The compound `Cc1ccc2nc(N3CCC(NCC(C)(C)O)CC3)c(-c3noc(C)n3)cc2c1` [compound 412] gave a 50% inhibitory concentration (IC50) of 476 nM.

For the compound `COC(=O)c1cc(Br)cnc1N1CCC(Nc2ccccc2)CC1` [C7], the IC50 is over 10000 nM.

`CO[C@@H]1CN(c2nc(C)c(C)cc2-c2nc(C)no2)CC[C@@H]1NC1CCCC1` [compound 346] gave a 50% inhibitory concentration (IC50) of 137 nM.

In turn, `CCc1ccc(-c2cc3cc(C)ccc3nc2N2CCC(NC3CCCCC3)CC2)nn1` [compound 455] returned an IC50 of 1640 nM.

Turning to `COC(=O)c1cc(NC(=O)C(C)(C)C)cnc1N1CCC(NC2CCCCC2)CC1` [C37], the 50% inhibitory concentration (IC50) was over 10000 nM.

Turning to `COC(=O)c1cc(Br)cnc1N1CCC(N)CC1` [C1], the half-inhibitory concentration (IC50) was over 10000 nM.

The compound `COC(=O)c1cnc(N2CCC(NC3CCCCC3)CC2)c(NC(C)=O)c1` [C39] showed a 50% inhibitory concentration (IC50) of over 10000 nM.

In turn, `Cc1ccc2nc(N3CCC(N)CC3)c(-c3nc(C)no3)cc2c1` [C82] came in with an IC50 of over 10000 nM.

In the case of `CO[C@@H]1CN(c2nc(C)ccc2-c2noc(C)n2)CC[C@@H]1NC1CCCCC1` [compound 430], half-maximal inhibition (IC50) was put at 1000 nM.

Regarding `CCc1noc(-c2cc3cc(C)ccc3nc2N2CC[C@@H](NC3CCCCC3)[C@H](O)C2)n1` [compound 335], half-maximal inhibition (IC50) required 113 nM.

`CO[C@@H]1CN(c2ncc(C)cc2-n2ccc(C)n2)CC[C@@H]1NC1CCCCC1` [compound 383] returned an IC50 of 1160 nM.

In turn, `CO[C@H]1CN(c2nc3ccccc3cc2-c2ccc(C)nn2)CC[C@H]1NC1CCCCC1` [compound 344] showed an IC50 of 16.8 nM.

In the case of `Cc1noc(-c2ccc(CO)nc2N2CCC(NC3CCCCC3)CC2)n1` [compound 428], the IC50 was 101 nM.

For the compound `Cc1ccc2nc(N3CCC(NC4CCCCC4)CC3)c(-c3ccc(C)nn3)cc2c1` [compound 438], the IC50 stood at 75 nM.

The compound `c1cnnc(-c2cc3ccccc3nc2N2CCC(NC3CCCCC3)CC2)c1` [compound 464] showed an IC50 of 87 nM.

`CCOC(=O)c1cc(C(N)=O)c(C)nc1N1CCC(NC2CCCCC2)CC1` [C28] came in with an IC50 of over 10000 nM.

With `COC1CN(c2nc3ccccc3cc2-c2cccnn2)CCC1NC1CCCCC1` (stereo not shown) [compound 463], the half-inhibitory concentration (IC50) turned out to be 54 nM.

With `Cc1ccc2nc(N3CCC(NC4CCCCC4CO)CC3)c(-c3nc(C)no3)cc2c1` (stereo not shown) [compound 368], the IC50 was 7 nM.

The compound `Cc1ccc2nc(N3CCC(C)(NC4CCOCC4)CC3)c(-c3nc(C)no3)cc2c1` [C74] showed a concentration for half-maximal inhibition (IC50) of over 10000 nM.

The compound `Cc1ccc2nc(NCCCNC3CCOCC3)c(-c3nc(C)no3)cc2c1` [C85] registered a half-maximal inhibitory concentration (IC50) of over 10000 nM.

The compound `CO[C@@H]1CN(c2nc3ccc(C)cc3cc2-c2nc(C)no2)CC[C@@H]1NC1CCCC1` [compound 347] displayed an IC50 of 32 nM.

The compound `CCN(CC)C(=O)c1cc(Br)cnc1N1CCC(NC2CCCCC2)CC1` [C18] gave a concentration for half-maximal inhibition (IC50) of over 10000 nM.

As to `COC(=O)c1ccc(C(F)(F)F)nc1N1CCC(NC2CCCCC2)CC1` [C24], the half-inhibitory concentration (IC50) is over 10000 nM.

For the compound `Cc1cnc(N2CCC(NC3CCOCC3)CC2)c(-c2nc(C)no2)c1` [compound 389], the IC50 was determined as 153 nM.

Compound `Cc1ccc2nc(N3CCC(NC[C@H](C)O)CC3)c(-c3noc(C)n3)cc2c1` [compound 424] came in with a half-maximal inhibitory concentration (IC50) of 422 nM.

`CCCCOC(=O)c1cc(Br)cnc1N1CCC(NC2CCCCC2)CC1` [C32] had a 50% inhibitory concentration (IC50) of over 10000 nM.

On to `Cc1cc(C(=O)N(C)C)c(N2CCC(NC3CCCCC3)CC2)nn1` [compound 400], for which the IC50 is 279 nM.

For the compound `COC(=O)c1cc(C#N)c(N2CCC(NC3CCCCC3)C(CO)C2)nc1C` (stereo not shown) [C56], the IC50 is over 20000 nM.

Compound `Cc1cnc(N2CCC(NCC(C)C)CC2)c(-c2nc(C)no2)c1` [compound 393] registered an IC50 of 346 nM.

Compound `Cc1cc(-c2nc(C3CC3)no2)c(N2CCC(NC3CCCCC3)CC2)nn1` [compound 457] came in with a concentration for half-maximal inhibition (IC50) of 24 nM.

On to `Cc1cc(C)c2nc(N3CCC(NC4CCOCC4)CC3)c(-c3nc(C)no3)cc2c1` [compound 363], for which the IC50 was 10 nM.

In the case of `O=C(O)c1cc(Br)cnc1N1CCC(NC2CCCCC2)CC1` [compound 34], under “% inhibition to which the printed IC50 value refers, if other than 50%”, the “% inhib if other than 50%” value was 85%.

`CO[C@@H]1CN(c2nc3ccc(C)cc3cc2-c2nc(C)no2)CC[C@@H]1NC1CCCCC1` [compound 315] gave a half-maximal inhibitory concentration (IC50) of 4 nM.

For `CO[C@@H]1CN(c2ncc(C)cc2-c2nc(C)no2)CC[C@@H]1NC1CCCCC1` [compound 341], half-maximal inhibition (IC50) was put at 76 nM.

Consider `CO[C@@H]1CN(c2nc3ccc(C)cc3cc2-c2nc(C3CC3)no2)CC[C@@H]1NC1CCCC1` [compound 340], for which the IC50 turned out to be 6 nM.

Compound `Cc1cnc(-c2cc3ccccc3nc2N2CCC(NC3CCOCC3)CC2)o1` [C81] displayed an IC50 of over 10000 nM.

`Cc1ccc2nc(N3CCC(NC4CCOCC4)CC3)c(-c3ccc(C)nn3)cc2c1` [compound 441] showed a 50% inhibitory concentration (IC50) of 392 nM.

For `Cc1nc(-c2c(N3CCC(NC4CCCC[C@@H]4O)CC3)nc3ccccc3c2C)no1` (stereo partly shown) [compound 446], inhibition was half-maximal at 72 nM (IC50).

For `COC(=O)c1cnc(N2CCC(NC3CCCCC3)C(CO)C2)c(Br)c1` (stereo not shown) [compound 102], it took 13000 nM to reach half-maximal inhibition (IC50).

In the case of `Cc1ccc2nc(N3CCC(NC4CCCCCC4)CC3)c(-c3nc(C)no3)cc2c1` [compound 367], the IC50 stood at 2 nM.

`Cc1noc(-c2cc(C)c(C)nc2N2CCC(NCC(C)C)CC2)n1` [compound 394] registered a 50% inhibitory concentration (IC50) of 161 nM.

`CNC(=O)c1cc2cc(C)ccc2nc1N1CCC(NC2CCCCC2)C(CO)C1` (stereo not shown) [C89] displayed a half-maximal inhibitory concentration (IC50) of over 10000 nM.

Take `Cc1ccc2nc(N3CCC(NC4CCC[C@@H]4O)CC3)c(-c3ccc(C)nn3)cc2c1` (stereo partly shown) [compound 444]: half-maximal inhibition (IC50) required 634 nM.

As for `Cc1ccc2nc(N3CCC(NC(=O)OC(C)(C)C)CC3)c(-c3nc(C)no3)cc2c1` [C71], the IC50 was over 10000 nM.

In turn, `Cc1ccc2nc(NCCCNC3CCCCC3)c(-c3nc(C)no3)cc2c1` [C86] returned a 50% inhibitory concentration (IC50) of over 10000 nM.

`Cc1noc(-c2cc3cc(C)c(C)cc3nc2N2CCC(NC3CCOCC3)CC2)n1` [C90]: the IC50 was over 10000 nM.

`COC(=O)c1cc(Br)cnc1N1CCCC(NC2CCCCC2)C1` (stereo not shown) [C14] yielded an IC50 of over 10000 nM.

As for `COC(=O)c1cc(Br)cnc1N1CCC(NC(=O)OC(C)(C)C)CC1` [C2], the half-maximal inhibitory concentration (IC50) is over 10000 nM.

As to `Cc1ccc2nc(N3CCC(NC4CCCCC4O)CC3)c(-c3ccc(C)nn3)cc2c1` (stereo not shown) [compound 451], half-maximal inhibition (IC50) required 94 nM.
